How the values were obtained:
[1] = Caco2 assay (permeability, Papp A-B); format: in vitro ADME; details: human, Caco-2, absorptive direction (A-B), 50 μM test compound, 4% BSA in receiver
Procedure, shortened: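 Caco-2 monolayers, 22-25 days on Transwells, TEER 300 Ω·cm^2, dosed apically with 50 μM compound in HBSS; basolateral HBSS with 4% BSA. 120 min at 37 °C, samples quantified by LCMS; Papp (A-B) from receiver-side cumulative flux slope, donor volume, surface area and initial donor amount.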

KRAS G12D = KRAS G12D (Homo sapiens, UniProt P01116, G12D); assay: GDP-GTP exchange assay (KRAS G12D); format: biochemical; details: bodipy-GDP/GppNHp exchange with SOS1; 4 h pre-incubation, 2 h reaction;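 further: one dagger IC50 up to 100 nM and two daggers above 100 nM up to 1 μM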
Procedure, shortened: (§1)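 Bodipy-GDP-loaded KRAS (2.5 nM final) was pre-incubated 4 h at r.t. with inhibitor in Hepes pH 7.5 buffer with MgCl2, then exchange started with GppNHp (500 μM) and SOS1 (150 nM) final. Fluorescence (ex 485/em 520 nm) read after 2 h for G12D, 3 h for G12V; IC50 from four-parameter logistic fit.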

KRAS G12V = KRAS G12V (Homo sapiens, UniProt P01116, G12V); assay: GDP-GTP exchange assay (KRAS G12V); format: biochemical; details: bodipy-GDP/GppNHp exchange with SOS1; 3 h incubation after GppNHp-SOS1;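 further: one dagger IC50 up to 100 nM and two daggers above 100 nM up to 1 μM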
Procedure, shortened: as §1

Sequence of KRAS G12D (P01116 1-188 isoform P01116-2 G12D): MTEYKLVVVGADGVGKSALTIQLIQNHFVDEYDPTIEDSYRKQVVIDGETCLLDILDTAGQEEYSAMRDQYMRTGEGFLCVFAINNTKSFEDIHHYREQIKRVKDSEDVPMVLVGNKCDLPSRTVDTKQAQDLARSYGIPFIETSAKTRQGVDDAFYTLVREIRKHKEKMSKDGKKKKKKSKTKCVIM
Sequence of KRAS G12V (P01116 1-188 isoform P01116-2 G12V): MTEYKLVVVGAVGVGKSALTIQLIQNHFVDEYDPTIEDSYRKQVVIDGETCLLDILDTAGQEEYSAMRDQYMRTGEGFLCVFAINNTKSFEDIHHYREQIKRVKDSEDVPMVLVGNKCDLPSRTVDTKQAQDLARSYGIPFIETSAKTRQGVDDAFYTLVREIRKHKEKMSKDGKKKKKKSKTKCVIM

Papp A→B at 120 min, 50 μM [1] | G12D_exchange (KRAS_G12D exchange assay IC50) (KRAS G12D) | G12V_exchange (KRAS_G12V exchange assay IC50) (KRAS G12V) | SMILES
0.5 to 1 ×10⁻⁶ cm/s | †† | † | Cc1ccc(F)c(N2C[C@@H]3C[C@H](C2)N(C(=O)C2CC2)[C@H]3c2cc3c(C)nc4c(F)c(-c5cccc(Cl)c5Cl)c(CCC#N)cc4c3n2[C@H]2[C@H]3CN[C@@H]2C3)n1 (atropisomer, axis not shown; (Ra)) [Example 52, 3-((Ra)-1-((1R,4R,5S)-2-azabicyclo[2.1.1]hexan-5-yl)-2-((1S,5R,7R)-6-(cyclopropanecarbonyl)-3-(3-fluoro-6-methylpyridin-2-yl)-3,6-diazabicyclo[3.2.1]octan-7-yl)-7-(2,3-dichlorophenyl)-6-fluoro-4-methyl-1H-pyrrolo[3,2-c]quinolin-8-yl)propanenitrile]
0.5 to 1 ×10⁻⁶ cm/s | † | † | Cc1cnc(N2C[C@@H]3C[C@H](C2)N(C(=O)C2CC2)[C@H]3c2cc3c(C)nc4c(F)c(-c5cccc(Cl)c5Cl)c(CCC#N)cc4c3n2[C@H]2[C@H]3CN[C@@H]2C3)c(F)c1 (atropisomer, axis not shown; (Ra)) [Example 53, 3-((Ra)-1-((1R,4R,5S)-2-azabicyclo[2.1.1]hexan-5-yl)-2-((1S,5R,7R)-6-(cyclopropanecarbonyl)-3-(3-fluoro-5-methylpyridin-2-yl)-3,6-diazabicyclo[3.2.1]octan-7-yl)-7-(2,3-dichlorophenyl)-6-fluoro-4-methyl-1H-pyrrolo[3,2-c]quinolin-8-yl)propanenitrile]
≤ 0.5 ×10⁻⁶ cm/s | † | † | Cc1nc2c(F)c(-c3cccc(Cl)c3Cl)c(CCC#N)cc2c2c1cc([C@H]1[C@H]3C[C@H](CN(c4nccc(C(F)F)c4F)C3)N1C(=O)C1CC1)n2[C@H]1[C@H]2CN[C@@H]1C2 (atropisomer, axis not shown; (Ra)) [Example 54, 3-((Ra)-1-((1R,4R,5S)-2-azabicyclo[2.1.1]hexan-5-yl)-2-((1S,5R,7R)-6-(cyclopropanecarbonyl)-3-(4-(difluoromethyl)-3-fluoropyridin-2-yl)-3,6-diazabicyclo[3.2.1]octan-7-yl)-7-(2,3-dichlorophenyl)-6-fluoro-4-methyl-1H-pyrrolo[3,2-c]quinolin-8-yl)propanenitrile]
0.5 to 1 ×10⁻⁶ cm/s | †† | † | COc1ccnc(N2C[C@@H]3C[C@H](C2)N(C(=O)C2CC2)[C@H]3c2cc3c(C)nc4c(F)c(-c5cccc(Cl)c5Cl)c(CCC#N)cc4c3n2[C@H]2[C@H]3CN[C@@H]2C3)c1F (atropisomer, axis not shown; (Ra)) [Example 55, 3-((Ra)-1-((1R,4R,5S)-2-azabicyclo[2.1.1]hexan-5-yl)-2-((1S,5R,7R)-6-(cyclopropanecarbonyl)-3-(3-fluoro-4-methoxypyridin-2-yl)-3,6-diazabicyclo[3.2.1]octan-7-yl)-7-(2,3-dichlorophenyl)-6-fluoro-4-methyl-1H-pyrrolo[3,2-c]quinolin-8-yl)propanenitrile]
≤ 0.5 ×10⁻⁶ cm/s | † | † | Cc1nc2c(F)c(-c3cccc(Cl)c3Cl)c(CCC#N)cc2c2c1cc([C@H]1[C@H]3C[C@H](CN(c4ccn(C(F)F)c(=O)c4)C3)N1C(=O)C1CC1)n2[C@H]1[C@H]2CN[C@@H]1C2 (atropisomer, axis not shown; (Ra)) [Example 56, 3-((Ra)-1-((1R,4R,5S)-2-azabicyclo[2.1.1]hexan-5-yl)-2-((1S,5R,7R)-6-(cyclopropanecarbonyl)-3-(1-(difluoromethyl)-2-oxo-1,2-dihydropyridin-4-yl)-3,6-diazabicyclo[3.2.1]octan-7-yl)-7-(2,3-dichlorophenyl)-6-fluoro-4-methyl-1H-pyrrolo[3,2-c]quinolin-8-yl)propanenitrile]
≤ 0.5 ×10⁻⁶ cm/s | † | † | Cc1nc2c(F)c(-c3cccc(Cl)c3Cl)c(CCC#N)cc2c2c1cc([C@H]1[C@H]3C[C@H](CN(c4ccn(CC(C)C)c(=O)c4)C3)N1C(=O)C1CC1)n2[C@H]1[C@H]2CN[C@@H]1C2 (atropisomer, axis not shown; (Ra)) [Example 58, 3-((Ra)-1-((1R,4R,5S)-2-azabicyclo[2.1.1]hexan-5-yl)-2-((1S,5R,7R)-6-(cyclopropanecarbonyl)-3-(1-isobutyl-2-oxo-1,2-dihydropyridin-4-yl)-3,6-diazabicyclo[3.2.1]octan-7-yl)-7-(2,3-dichlorophenyl)-6-fluoro-4-methyl-1H-pyrrolo[3,2-c]quinolin-8-yl)propanenitrile]
≤ 0.5 ×10⁻⁶ cm/s | † | † | COc1cc(N2C[C@@H]3C[C@H](C2)N(C(=O)C2CC2)[C@H]3c2cc3c(C)nc4c(F)c(-c5cccc(Cl)c5Cl)c(CCC#N)cc4c3n2[C@H]2[C@H]3CN[C@@H]2C3)ccn1 (atropisomer, axis not shown; (Ra)) [Example 59, 3-((Ra)-1-((1R,4R,5S)-2-azabicyclo[2.1.1]hexan-5-yl)-2-((1S,5R,7R)-6-(cyclopropanecarbonyl)-3-(2-methoxypyridin-4-yl)-3,6-diazabicyclo[3.2.1]octan-7-yl)-7-(2,3-dichlorophenyl)-6-fluoro-4-methyl-1H-pyrrolo[3,2-c]quinolin-8-yl)propanenitrile]
≤ 0.5 ×10⁻⁶ cm/s | † | † | Cc1nc2c(F)c(-c3cccc(Cl)c3Cl)c(CCC#N)cc2c2c1cc([C@H]1[C@H]3C[C@H](CN(c4ccnc(C(F)F)c4)C3)N1C(=O)C1CC1)n2[C@H]1[C@H]2CN[C@@H]1C2 (atropisomer, axis not shown; (Ra)) [Example 60, 3-((Ra)-1-((1R,4R,5S)-2-azabicyclo[2.1.1]hexan-5-yl)-2-((1S,5R,7R)-6-(cyclopropanecarbonyl)-3-(2-(difluoromethyl)pyridin-4-yl)-3,6-diazabicyclo[3.2.1]octan-7-yl)-7-(2,3-dichlorophenyl)-6-fluoro-4-methyl-1H-pyrrolo[3,2-c]quinolin-8-yl)propanenitrile]
≤ 0.5 ×10⁻⁶ cm/s | † | † | Cc1nc2c(F)c(-c3cccc(Cl)c3Cl)c(CCC#N)cc2c2c1cc([C@H]1[C@H]3C[C@H](CN(c4ccn5ccnc5c4)C3)N1C(=O)C1CC1)n2[C@H]1[C@H]2CN[C@@H]1C2 (atropisomer, axis not shown; (Ra)) [Example 61, 3-((Ra)-1-((1R,4R,5S)-2-azabicyclo[2.1.1]hexan-5-yl)-2-((1S,5R,7R)-6-(cyclopropanecarbonyl)-3-(imidazo[1,2-a]pyridin-7-yl)-3,6-diazabicyclo[3.2.1]octan-7-yl)-7-(2,3-dichlorophenyl)-6-fluoro-4-methyl-1H-pyrrolo[3,2-c]quinolin-8-yl)propanenitrile]
≤ 0.5 ×10⁻⁶ cm/s | † | † | Cc1nc2c(F)c(-c3cccc(Cl)c3Cl)c(CCC#N)cc2c2c1cc([C@H]1[C@H]3C[C@H](CN(c4ccnc(C(C)(C)O)c4)C3)N1C(=O)C1CC1)n2[C@H]1[C@H]2CN[C@@H]1C2 (atropisomer, axis not shown; (Ra)) [Example 62, 3-((Ra)-1-((1R,4R,5S)-2-azabicyclo[2.1.1]hexan-5-yl)-2-((1S,5R,7R)-6-(cyclopropanecarbonyl)-3-(2-(2-hydroxypropan-2-yl)pyridin-4-yl)-3,6-diazabicyclo[3.2.1]octan-7-yl)-7-(2,3-dichlorophenyl)-6-fluoro-4-methyl-1H-pyrrolo[3,2-c]quinolin-8-yl)propanenitrile]
≤ 0.5 ×10⁻⁶ cm/s | † | † | Cc1nc2c(F)c(-c3cccc(Cl)c3Cl)c(CCC#N)cc2c2c1cc([C@H]1[C@H]3C[C@H](CN(c4cnn(C)c(=O)c4)C3)N1C(=O)C1CC1)n2[C@H]1[C@H]2CN[C@@H]1C2 (atropisomer, axis not shown; (Ra)) [Example 65, 3-((Ra)-1-((1R,4R,5S)-2-azabicyclo[2.1.1]hexan-5-yl)-2-((1S,5R,7R)-6-(cyclopropanecarbonyl)-3-(1-methyl-6-oxo-1,6-dihydropyridazin-4-yl)-3,6-diazabicyclo[3.2.1]octan-7-yl)-7-(2,3-dichlorophenyl)-6-fluoro-4-methyl-1H-pyrrolo[3,2-c]quinolin-8-yl)propanenitrile]
≤ 0.5 ×10⁻⁶ cm/s | † | † | CCn1ccc(N2C[C@@H]3C[C@H](C2)N(C(=O)C2CC2)[C@H]3c2cc3c(C)nc4c(F)c(-c5cccc(Cl)c5Cl)c(CCC#N)cc4c3n2[C@H]2[C@H]3CN[C@@H]2C3)cc1=O (atropisomer, axis not shown; (Ra)) [Example 67, 3-((Ra)-1-((1R,4R,5S)-2-azabicyclo[2.1.1]hexan-5-yl)-2-((1S,5R,7R)-6-(cyclopropanecarbonyl)-3-(1-ethyl-2-oxo-1,2-dihydropyridin-4-yl)-3,6-diazabicyclo[3.2.1]octan-7-yl)-7-(2,3-dichlorophenyl)-6-fluoro-4-methyl-1H-pyrrolo[3,2-c]quinolin-8-yl)propanenitrile]
